Read-outs that look alike come from different tables or passages of the source.
Tests used:
[1] = Water Solubility Test (time to completely dissolve); format: physicochemical; settings: for Dissolving time: 300 mg of crystals sized through 150 μm mesh, 10 ml of water, 25° C., complete dissolution
Excerpt: The crystalline form of the present invention obtained according to Example 2 and a crystalline form described in Japanese Patent Application Publication (Kokai) No. 2001-72681 ((1R,5S,6S)-6-[(1R)-1-hydroxyethyl]-1-methyl-2-[(2S,4S)-2-[(3S)-3-(2-guanidinoacetylamino)pyrrolidin-1-ylcarbonyl]-1-methylpyrrolidin-4-ylthio]-1-carbepen-2-em-3-carboxylic acid, referred to as Crystalline form 2) were sized by passing through a 150 μm mesh filter followed by measurement of the amount of time required for 300 mg of the crystals to completely dissolve in 10 ml of water at 25° C.

[2] = Storage Stability Test-1 (sealed brown glass bottle, 25° C., purity by HPLC); format: physicochemical; settings: HPLC peak area ratio
Method: The crystalline form of the present invention obtained according to Example 2 and a crystalline form described in Japanese Patent Application Publication (Kokai) No. 2001-72681 ((1R,5S,6S)-6-[(1R)-1-hydroxyethyl]-1-methyl-2-[(2S,4S)-2-[(3S)-3-(2-guanidinoacetylamino)pyrrolidin-1-ylcarbonyl]-1-methylpyrrolidin-4-ylthio]-1-carbepen-2-em-3-carboxylic acid·monoethanolate·trihydrate, referred to as Crystalline form 1) were sealed in a brown glass bottle at a constant temperature of 25° C. followed by measurement of purity at the start of the test, one month later and two months later using high performance liquid chromatography (column: Develosil RPAQUEOUS 4.6×150 mm, column temperature: 60° C., developer flow rate: 1.0 ml/min, developer: 0.02 M aqueous potassium dihydrogen phosphate solution/acetonitrile=95/5 to 50/50). The resulting purities were represented as the ratios of the areas of the chromatographic peaks.

[3] = Storage Stability Test-2 (sealed brown glass bottle, 40° C., purity by HPLC); format: physicochemical; settings: HPLC peak area ratio
Method: The crystalline form of the present invention obtained according to Example 2 and Crystalline form 1 were sealed in a brown glass bottle at a constant temperature of 40° C. followed by measurement of purity at the start of the test and one month later using high performance liquid chromatography (column: Develosil RPAQUEOUS 4.6×150 mm, column temperature: 60° C., developer flow rate: 1.0 ml/min, developer: 0.02 M aqueous potassium dihydrogen phosphate solution/acetonitrile=95/5 to 50/50). The resulting purities were represented as the ratios of the areas of the chromatographic peaks.

[4] = test system: Gram-negative bacteria and Gram-positive bacteria; settings: cited from earlier work

SMILES	Dissolving time [1] [min]	solubility in water (in words) ([1]; compared with the known crystalline form)	Purity (%) 1 month later [2] [%]	Purity (%) 2 months later [2] [%]	Purity (%) Start of test [2] [%]	Purity 1 month later (%) [3] [%]	Purity at start of test (%) [3] [%]	antibacterial activity ([4]; from Patent Documents 1 and 2, listed as formula (I))	antibacterial activity ([4]; from Patent Documents 1 and 2)
C[C@@H](O)[C@H]1C(=O)N2C(C(=O)O)=C(S[C@H]3C[C@@H](C(=O)N4CC[C@H](NC(=O)CNC(=N)N)C4)N(C)C3)[C@H](C)[C@H]12 (stereo in doubt) [Crystalline form of present invention, (1R,5S,6S)-6-[(1R)-1-Hydroxyethyl]-1-methyl-2-[(2S,4S)-2-[(3S)-3-(2-guanidinoacetylamino)pyrrolidin-1-ylcarbonyl]-1-methylpyrrolidin-4-ylthio]-1-carbapen-2-em-3-carboxylic acid acetonate]	2.5	superior to that of the known crystalline form	98.43	98.40	98.35	98.35	98.35	–	–
CCO.C[C@@H](O)[C@H]1C(=O)N2C(C(=O)O)=C(S[C@H]3C[C@@H](C(=O)N4CC[C@H](NC(=O)CNC(=N)N)C4)N(C)C3)[C@H](C)[C@H]12.O.O.O [Crystalline form 1, (1R,5S,6S)-6-[(1R)-1-hydroxyethyl]-1-methyl-2-[(2S,4S)-2-[(3S)-3-(2-guanidinoacetylamino)pyrrolidin-1-ylcarbonyl]-1-methylpyrrolidin-4-ylthio]-1-carbepen-2-em-3-carboxylic acid·monoethanolate·trihydrate, reference compound]	–	–	98.35	98.06	98.45	98.26	98.45	–	–
C[C@@H](O)[C@H]1C(=O)N2C(C(=O)O)=C(S[C@H]3C[C@@H](C(=O)N4CC[C@H](NC(=O)CNC(=N)N)C4)N(C)C3)[C@H](C)[C@H]12 [Crystalline form 2, (1R,5S,6S)-6-[(1R)-1-hydroxyethyl]-1-methyl-2-[(2S,4S)-2-[(3S)-3-(2-guanidinoacetylamino)pyrrolidin-1-ylcarbonyl]-1-methylpyrrolidin-4-ylthio]-1-carbepen-2-em-3-carboxylic acid, reference compound]	8.0	–	–	–	–	–	–	–	–
C[C@@H](O)[C@H]1C(=O)N2C(C(=O)O)=C(S[C@H]3C[C@@H](C(=O)N4CC[C@H](NC(=O)CNC(=N)N)C4)N(C)C3)[C@H](C)[C@H]12 [compound (I), (1R,5S,6S)-6-[(1R)-1-hydroxyethyl]-1-methyl-2-[(2S,4S)-2-[(3S)-3-(2-guanidinoacetylamino)pyrrolidin-1-ylcarbonyl]-1-methylpyrrolidin-4-ylthio]-1-carbapen-2-em-3-carboxylic acid]	–	–	–	–	–	–	–	potent antibacterial activity	excellent antibacterial activity

From US20080227768A1, “Crystal of 1-Methylcarbapenem Compound” (priority 2005, published 2008)
